Source: patent US5219884A, “Immunosuppressant” (Taito Co., Ltd., priority 1990, dated 1993)
Like-named read-outs stand apart in the source and are kept apart here.

Key:
[1] = test system: KATOIII; assay: in vitro; type: cell-based, human
[2] = test system: PC-6; assay: cytotoxicity to tumor cell line PC-6; type: cell-based, human
Method: (§1) Cytotoxicity to human tumor cell lines was examined as follows:
(§2) Cells of human cell lines, K562, MOLT4, U937, HL60, KATOIII, KB, PC-6, PC-14 and CCRF-CEM were separately suspended to the concentration of 2×10^5 cells/ml in the RPMI1640 culture medium supplemented with 20% FCS. Fifty μl of this suspension was added to each well of 96-well microculture plates to which 50 μl of the test solution had been added. After culturing at 37° C. in an atmosphere of 5% carbon dioxide for 72 hours, the absorbancy at 550 nm was measured in the same way as the colorimetry using MTT in Experimental Example 1, and the percent suppression was calculated in the same manner as in Experimental Example 14, which was used as the index of cytotoxicity.

[3] = cytotoxicity to tumor cell line PC-6; type: cell-based, human; conditions: human, pc-6 cells, read-out: Suppression
Method: as §1, §2

[4] = test system: IL3 production in PHA-stimulated mouse spleen cells; assay: suppression of IL3 production in PHA-stimulated mouse spleen cells; type: cell-based; conditions: for inhibition at 0.01 µg/mL / inhibition at 0.1 µg/mL / inhibition at 1 µg/mL / inhibition at 10 µg/mL: Mus musculus, read-out: Suppression
Method: The supernatant of mouse allogenic MLC and the supernatant of PHA-stimulated mouse spleen cells culture were prepared in the same manner as in Experimental Example 6.
The IL3 activity in the supernatant described above was assayed as follows: IL3-dependent mouse cell line FDC-P2 cells were suspended in the RPMI1640 culture medium supplemented with 10% FCS to the concentration of 10^5 cells/ml, and 100 μl of the suspension was added to each well of 96-well microculture plates in which 100 μl per well of the two-fold serial dilutions of the supernatant described above had been placed. After culturing at 37° C. in an atmosphere of 5% carbon dioxide for 20 hours, 0.5 μCi/well of ^3 H-thymidine was added, and cultured for further 4 hours under the same conditions. After termination of the culture, the cells were harvested by a cell harvester, and the radioactivity incorporated into the cells was measured by a liquid scintillation counter. The IL3 activity was expressed in U/ml as the titer at the concentrations at which the amount of ^3 H-thymidine incorporated was 50% of the maximum.

[5] = test system: alloreactive cytotoxic T cells (EL4 target cells); assay: suppression of induction of alloreactive cytotoxic T cells in mouse allogenic MLC (51Cr release); type: cell-based
Method: The spleen cells suspension, 0.5 ml, (2×10^7 cells/ml) of BALB/c mouse (H-2^d) prepared in the same way as in Experimental Example 1, 0.5 ml of a suspension of mitomycin C-treated C57BL/6 mouse (H-2^b) spleen cells (2×10^7 cell/ml) and 1.0 ml of the test substance were added to 24-well multidishes, and cultured at 37° C. in an atmosphere of 5% carbon dioxide for 6 days.
After termination of the culture, the cells were harvested by centrifugation, and the concentration of the cell suspension was adjusted to 5×10^6 -6.25×10^5 cells/ml by using the RPMI1640 culture medium supplemented with 10% FCS, and used as the effector cell suspension.
The target cells used were leukemia cells EL4 from the syngenic (H-2^b) C57BL/b mouse as used for preparation of the stimulator cells. By incubating 10^6 EL4 cells in the presence of 100 μCi of Na2^51 CrO4 (1 mCi/ml) at 37° C. for 1 hour to incorporate ^51 Cr into the cytoplasm. The cell were washed, adjusted to the concentration of 10^4 cells/ml and used as the target cell suspension.
For the assay of the cytotoxic activity, 0.1 ml of the effector cell suspension and 0.1 ml of the target cell suspension were added to 96-well flat-bottomed plates, and cultured at 37° C. for 4 hours. The amount of ^51 Cr released into the supernatant was determined and the cytotoxic activity was calculated by the following formula. [formula]

[6] = test system: IL3-dependent mouse cell line FDC-P2; assay: suppression of IL3-induced proliferation of FDC-P2; type: cell-based; conditions: for inhibition at 0.001 µg/mL / inhibition at 0.01 µg/mL / inhibition at 0.1 µg/mL / inhibition at 1 µg/mL / inhibition at 10 µg/mL: Mus musculus, 24 h
Method: IL3-dependent mouse cell line FDC-P2 cells were suspended in the RPMI1640 culture medium supplemented with 10% FCS to the concentration of 2×10^5 cells/ml. One hundred μl of the suspension and 50 μl of the supernatant of the culture of mouse luekemia cells WEHI3 containing IL3 were added to each well of 96-well microculture plates in which 100 μl of the test substance had been placed. After culturing at 37° C. in an atmosphere of 5% carbon dioxide for 20 hours, 0.5 μCi/well of ^3 H-thymidine was added, and cultured for 4 hours under the same conditions. After termination of the culture, the cells were harvested by a cell harvester, and the radioactivity incorporated into the cells was determined by a liquid scintillation counter, and was used as an index of the IL3-dependent proliferation.

[7] = 0.1 μg/ml, effector:target 25:1
[8] = 0.1 μg/ml, effector:target 50:1
[9] = 0.1 μg/ml, effector:target 100:1

## CCCCCCC(=O)CCCCCC/C=C/CC(O)C(O)C(N)(CO)C(=O)O (stereo not shown) [Example 1]
[1]; 0.01 μg/ml
  Absorbancy: 0.990
[1]; 0.1 μg/ml
  Absorbancy: 0.972
[1]; 1.0 μg/ml
  Absorbancy: 0.961
[1]; 10.0 μg/ml
  Absorbancy: 0.869
[1]; 100.0 μg/ml
  Absorbancy: 0.041
[2]; 0.01 μg/ml
  Absorbancy: 0.244
[2]; 0.1 μg/ml
  Absorbancy: 0.245
[2]; 1.0 μg/ml
  Absorbancy: 0.209
[2]; 10.0 μg/ml
  Absorbancy: 0.202
[2]; 100.0 μg/ml
  Absorbancy: 0.000
[3]; 0.1 μg/ml
  cytotoxicity at 72 h: 9.9%
[3]; 1.0 μg/ml
  cytotoxicity at 72 h: 23.2%
[3]; 100.0 μg/ml
  cytotoxicity at 72 h: 100%
[4]; 0.01 μg/ml
  IL3 activity: 4.0 U/ml
[4]; 0.1 μg/ml
  IL3 activity: < 2 U/ml
[4]; 1 μg/ml
  IL3 activity: < 2 U/ml
[4]; 10 μg/ml
  IL3 activity: < 2 U/ml
[4]
  inhibition at 0.01 µg/mL: 76.6%
  inhibition at 0.1 µg/mL: > 90%
  inhibition at 1 µg/mL: > 90%
  inhibition at 10 µg/mL: > 90%
[5]; 0.01 μg/ml, effector:target 25:1
  Amount of 51Cr release: 816 cpm
[5]; 0.01 μg/ml, effector:target 50:1
  Amount of 51Cr release: 783 cpm
[5]; 0.01 μg/ml, effector:target 100:1
  Amount of 51Cr release: 808 cpm
[5]; [7]
  Amount of 51Cr release: 764 cpm
[5]; [8]
  Amount of 51Cr release: 773 cpm
[5]; [9]
  Amount of 51Cr release: 771 cpm
[6]; 0.001 μg/ml
  3H-thymidine uptake: 6858 cpm
  inhibition at 0.001 µg/mL: 21.5%
[6]; 0.01 μg/ml
  3H-thymidine uptake: 6572 cpm
  inhibition at 0.01 µg/mL: 25.7%
[6]; 0.1 μg/ml
  3H-thymidine uptake: 5203 cpm
  inhibition at 0.1 µg/mL: 45.9%
[6]; 1 μg/ml
  3H-thymidine uptake: 5029 cpm
  inhibition at 1 µg/mL: 48.5%
[6]; 10 μg/ml
  3H-thymidine uptake: 2750 cpm
  inhibition at 10 µg/mL: 82.1%

## CCCCCCC(=O)CCCCCC/C=C/CC1OC(=O)C(N)(CO)C1O (stereo not shown) [Example 4]
[1]; 0.1 μg/ml
  Absorbancy: 0.407
[1]; 1.0 μg/ml
  Absorbancy: 0.401
[1]; 10.0 μg/ml
  Absorbancy: 0.319
[1]; 100.0 μg/ml
  Absorbancy: 0.009
[2]; 0.1 μg/ml
  Absorbancy: 0.247
[2]; 1.0 μg/ml
  Absorbancy: 0.273
[2]; 10.0 μg/ml
  Absorbancy: 0.271
[2]; 100.0 μg/ml
  Absorbancy: 0.014
[3]; 0.1 μg/ml
  cytotoxicity at 72 h: 15.1%
[3]; 1.0 μg/ml
  cytotoxicity at 72 h: 6.2%
[3]; 10.0 μg/ml
  cytotoxicity at 72 h: 6.9%
[3]; 100.0 μg/ml
  cytotoxicity at 72 h: 95.2%
[4]; 0.01 μg/ml
  IL3 activity: 9.1 U/ml
  inhibition at 0.01 µg/mL: 46.8%
[4]; 0.1 μg/ml
  IL3 activity: 2.8 U/ml
  inhibition at 0.1 µg/mL: 83.6%
[4]; 1 μg/ml
  IL3 activity: 2.3 U/ml
  inhibition at 1 µg/mL: 86.5%
[4]; 10 μg/ml
  IL3 activity: < 2 U/ml
  inhibition at 10 µg/mL: > 90%
[5]; [7]
  Amount of 51Cr release: 767 cpm
  Cytotoxic activity: 0%
[5]; [8]
  Amount of 51Cr release: 780 cpm
  Cytotoxic activity: 0%
[5]; [9]
  Amount of 51Cr release: 761 cpm
  Cytotoxic activity: 0%
[6]; 0.001 μg/ml
  3H-thymidine uptake: 7754 cpm
  inhibition at 0.001 µg/mL: 8.3%
[6]; 0.01 μg/ml
  3H-thymidine uptake: 6557 cpm
  inhibition at 0.01 µg/mL: 25.9%
[6]; 0.1 μg/ml
  3H-thymidine uptake: 5861 cpm
  inhibition at 0.1 µg/mL: 36.2%
[6]; 1 μg/ml
  3H-thymidine uptake: 4922 cpm
  inhibition at 1 µg/mL: 50.1%
[6]; 10 μg/ml
  3H-thymidine uptake: 2902 cpm
  inhibition at 10 µg/mL: 79.9%
